Here are results for one molecule from PMC10388362, “Fluorescent Ligands Enable Target Engagement Studies for the Intracellular Allosteric Binding Site of the Chemokine Receptor CXCR2” (Journal of Medicinal Chemistry, 2023).

Each structure is given as a SMILES string.

Experiment [1] addresses T1, CXCR2 (Homo sapiens, UniProt P25025).
T1 construct: Promega pNLF1-C (Nluc) #CXCR20TN00; host or cells: HEK293T, transient transfection (PEI)
T1 sequence (P25025 1-360): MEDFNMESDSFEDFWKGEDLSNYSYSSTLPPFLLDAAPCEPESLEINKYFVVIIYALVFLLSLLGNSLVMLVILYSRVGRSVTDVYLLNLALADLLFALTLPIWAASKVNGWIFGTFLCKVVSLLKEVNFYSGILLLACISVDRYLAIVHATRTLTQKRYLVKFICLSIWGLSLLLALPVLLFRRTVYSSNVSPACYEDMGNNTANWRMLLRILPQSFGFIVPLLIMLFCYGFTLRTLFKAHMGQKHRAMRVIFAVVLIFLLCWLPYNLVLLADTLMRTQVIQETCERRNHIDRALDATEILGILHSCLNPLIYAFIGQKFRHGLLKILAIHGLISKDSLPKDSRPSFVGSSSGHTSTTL
As to the kind of experiment: Membrane-based NanoBRET competition assay with 9a. It counts as binding. To be noted: competition with 9a (50 nM), CXCR2_Nluc membranes. How it is done:
Then, 20 μL of the membrane preparation (diluted in assay buffer, 2 μg total protein/well) was added and the plates were incubated for 90 min at 37 °C. Subsequently, 5 μL of a furimazine solution (final assay dilution: 1:5000 in the assay buffer) was added to each well (final assay volume: 35 μL). […] To determine the inhibition constants (Ki) of the nonlabeled ligands, data were analyzed using the one-site-fit Ki equation in PRISM9.5 (GraphPad).

For experiment [2], the target named is T1, CXCR2. As to the kind of experiment: Membrane-based NanoBRET competition kinetic assay with 9a. Conditions: kinetic competitive binding with 9a (50 nM), CXCR2_Nluc membranes; read-out: residence time tr. How it is done:
2.5 μL of a solution of the fluorescent ligand (9a) diluted in the assay buffer (final assay concentration: 50 nM) and 2.5 μL of a solution of the competing nonlabeled ligands (final assay concentrations: […]) or 3 for determining nonspecific binding (final assay concentration: 25 μM) in the assay buffer were transferred to a 384-well plate. […] Thereafter, 20 μL of the membrane preparation (2 μg total protein/well) was added and BRET ratios were measured with a CLARIOstar microplate reader using 620/10 and 475/30 nm emission filters over time. Specific BRET ratios were calculated as a difference of total and nonspecific binding. The obtained data were analyzed using the kinetics of the competitive binding algorithm in PRISM9.5 (GraphPad) to determine competition binding kinetics.

Experiment [3] deals with T1, CXCR2. As to the kind of experiment: Live cell NanoBRET competition binding with 9a. Conditions: competition with 9a (50 nM), live HEK293T cells expressing CXCR2_Nluc. On the procedure:
HEK293T cells were transfected with the plasmid (5.5 μg) for CXCR2_Nluc using polyethylenimine (PEI) as transfection reagent (PEI/DNA ratio 3:1). After 24 h at 37 °C and 5% CO2, the cells were detached with DMEM and transferred to a white F-bottom 384-well plate (10,000 cells/well), which was coated with 5 μL/well poly-D-lysine (0.1 mg/mL, dissolved in water), and incubated for further 24 h at 37 °C and 5% CO2. Subsequently, the cells were washed with phosphate-buffered saline (Gibco DPBS, with CaCl2 and MgCl2). The assay medium (Gibco DMEM/F12, 15 mM HEPES, no phenol red supplemented with 5% FBS) was added and the cells were incubated at 37 °C for 30 min. […] To determine nonspecific binding, 5 μL of a solution of 3 dissolved in the assay medium (final assay concentration: 10 μM) were added.
Total, nonspecific and specific binding, which was calculated as a difference of total and nonspecific binding, were analyzed using the algorithms for one-site saturation binding in PRISM9.5 (GraphPad). To determine the inhibition constants (Ki) of the potential competitors, data were normalized to total and nonspecific binding and analyzed using the one-site-fit Ki equation in PRISM9.5 (GraphPad).

The target in experiment [4] is T1, CXCR2. As to the kind of experiment: Fluorescence microscopy, displacement of 9a in HEK293 cells stably expressing CXCR2. It counts as cell-based. Conditions: 9a 500 nM. How it is done: For live cell microscopy, HEK293 cells stably expressing CXCR2 were seeded onto poly-D-lysine (PDL)-coated 8-well μ-slides (Ibidi) at a density of 1.5 × 10^5 cells per well and cultured overnight at 37 °C and 5% CO2. […] Afterward, the fluorescent CXCR2 ligand ((9a) final concentration 500 nM) was added for 60 min at 37 °C, and the cells were washed once with PBS before imaging. For immunostaining, the cells were first fixed with 4% paraformaldehyde solution, washed with PBS, and then blocked for 1 h with 10% goat serum and 1% fatty acid-free bovine serum albumin (BSA) in PBS at 37 °C. As primary antibody, anti-CXCR2 mouse IgG (R&D Systems, catalog # 48311, 1:100 in blocking solution) was added, and the cells were incubated for 1 h at 37 °C. After three washes with PBS, goat anti-mouse IgG (H+L) conjugated to FITC (Sigma-Aldrich, catalog # AP124F, 1:500 in blocking solution) was added for 1 h at 37 °C. The cells were again washed three times with PBS and counterstained with 4′,6-diamidin-2-phenylindole (DAPI) solution (0.1 μg/mL) for 15 min in the dark at room temperature, followed by three washes with PBS. […] Afterward, the fluorescent CXCR2 ligand ((9a) final concentration 500 nM) was added for 30 min at 37 °C and the cells were imaged. Microscopy was carried out on an AxioObserver.Z1 microscope (Carl Zeiss, Jena, Germany) equipped with an ApoTome imaging system and a Heating unit XL S using a Plan-Apochromat ×63/1.40 Oil objective (filter set 43 (red), 38 (green), 49 (blue)). Image processing and line scan analysis were performed with Zen blue Imaging software. The fluorescence intensity values were normalized to vehicle control.

On to `Cc1ccc([C@H](Nc2c(Nc3cccc(C(=O)N(C)C)c3O)c(=O)c2=O)C(C)(C)C)o1` [compound 3], for which the Ki on CXCR2 [1] (read-out: Ki) is 0.09 nM; at CXCR2 [1] (read-out: pKi (converted)), 0.0794 nM; at CXCR2 [3] (read-out: Ki) it was 0.011 nM; on CXCR2 [3] (read-out: pKi (converted)), 0.00933 nM. The residence time at CXCR2 [2] amounted to 474 ± 59 min. In addition, the “effect of preincubation on membrane-associated 9a fluorescence” value on CXCR2 [4] (fixed HEK293 cells stably expressing CXCR2, competitor 10 μM) was “virtually blunted all membrane-associated probe fluorescence”. Also, the “effect of preincubation on membrane-based 9a fluorescence” value on CXCR2 [4] (live cell imaging, HEK293 cells stably expressing CXCR2, competitor 10 μM) was “very strong reduction in membrane-based fluorescence”.
